US20140243350A1, “USE OF SEROTONIN RECEPTOR AGONISTS FOR TREATMENT OF MOVEMENT DISORDERS” (CONTERA PHARMA APS, priority 2011, published 2014)
Read-outs that look alike come from different tables or passages of the source.

Assays:
[1] = system: LID model rats; settings: buspirone alone 0.2 mg/kg s.c., 11 min before AIM test; FIG. 8A
[2] = system: patients treated with neuroleptics; settings: open study, relative high doses; cited from earlier work
[3] = system: unilaterally 6-OHDA-lesioned rats; settings: buspirone alone 0.5 mg/kg i.p.
Source text: 6-OHDA (6-hydroxydopamine) is a neurotoxin that selectively kills dopaminergic and noradrenergic neurons and induces a reduction of dopamine levels in the brain. […] These are axial, limb and oral movements that occur only on the body side that is […] to the lesion.
In the mild cases: lateral flexion of the neck or torsional movements of the upper trunk towards the side contralateral to the lesion. With repeated injection of L-DOPA, this movement may develop into a pronounced and continuous dystonia-like axial torsion. […] In mild cases: hyperkinetic, jerky stepping movements of the forelimb contralateral to the lesion, or small circular movements of the forelimb to and from the snout.

[4] = system: naïve rats; settings: retigabine alone 10 mg/kg i.p.; for total move distance (locomotor activity) in open field test: FIG. 6; for total velocity (locomotor activity) in open field test: FIG. 7; for locomotor activity (moving distance and velocity) in open field test: FIGS. 6 and 7
Experimental: Species: 60 Sprague-Dawley male rats (180-220 g, bred in house, originally from SLAC Labortory Animal Co. Ltd) at 9-week of age.
Administration and dose regimen for the groups of animals (each comprising 10 rats):
Vehicle: 10% Tween 80, i.p., 30 min before test, n=10. Buspirone 1: Buspirone (From Sigma, Cat. No. B7148, Lot. No. 042K1763Z) 1 mg/kg, i.p. 30 min before test, n=10. Buspirone 2: Buspirone 2 mg/kg, i.p. 30 min before test, n=10.
Rats were put in open-field chambers (dimensions 40 cm×40 cm×40 cm) 30 minutes after dosing. After a 15 minutes habituation, locomotion were recorded and analyzed by Enthovision Video Tracking Software (Noldus Information Technology, Netherlands) for 60 minutes. All locomotor activities were done during dark phase and to eliminate olfactory cues, the arena was thoroughly cleaned with 70% v/v ethanol between each test.
Data statistics: The total locomotor activity is expressed as total moved distance (cm) and average velocity (cm/s) every 10 minutes during 60 minutes. The data were analyzed using One-Way ANOVA and the Tukey post-hoc test. The locomotor activity in six time point is expressed as moved distance (cm) and average velocity (cm/s) every 10 minutes. The data were analyzed using One-Way ANOVA and the Tukey post-hoc test in each time point.

In the case of `O=C1CC2(CCCC2)CC(=O)N1CCCCN1CCN(c2ncccn2)CC1` [buspirone, 8-[4-(4-pyrimidin-2-ylpiperazin-1-yl)butyl]-8-azaspiro[4.5]decane-7,9-dione], the “AUC (10-190 min) of total AIM (Lo+Ax+Li+Ol)” value [1] is listed as “small effect”, the “effects on tardive dyskinesia, Parkinsonism and akathisia” value [2] is listed as “has effects” and the “abnormal involuntary movements (AIM), sum of Lo, Ax, Li and Ol scores per testing session, time course” value ([3]; FIG. 1, vs vehicle) is listed as “partially reduced”. For the same compound, the “AUC (20-60 min) of total AIM (Lo+Ax+Li+Ol)” value ([3]; FIG. 2) was “partially reduced”, the “AUC (20-60 min) of locomotive limb (Li) AIM scores” value ([3]; FIG. 3) was “did not have an effect” and the “AUC (20-60 min) of locomotive Axial (Ax) AIM scores” value ([3]; FIG. 4) was “partially reduced”. The “AUC (20-60 min) of Orolingual (OL) AIM scores” value ([3]; FIG. 5) was “significantly reduced”.

For `CCOC(=O)Nc1ccc(NCc2ccc(F)cc2)cc1N` [retigabine, N-(2-amino-4-(4-fluorobenzylamino)-phenylcarbamic acid) ethyl ester], the “total move distance (locomotor activity) in open field test” value ([4]; after 20 to 60 minutes) was “no significant differences”, the “total velocity (locomotor activity) in open field test” value ([4]; after 20 to 60 minutes) was “no significant differences” and the “total velocity (locomotor activity) in open field test” value ([4]; after 10 minutes, vs vehicle) was “significantly inhibit”. For the same compound, the “locomotor activity (moving distance and velocity) in open field test” value ([4]; after 20 mins) was “no significant difference”, the “locomotor activity (moving distance and velocity) in open field test” value ([4]; initially (after 10 min)) was “significantly inhibit” and the “total move distance (locomotor activity) in open field test” value ([4]; initially, vs vehicle) was “significantly inhibit”.
